Data taken from patent publication EP1016409B1, “FREEZE DRIED COMPOSITION COMPRISING GLYCOSPHINGOLIPIDS” (KIRIN BEER KABUSHIKI KAISHA, priority 1997, dated 1998).

Columns and labels:
Type in all cases: physicochemical
[1] = Excipient appropriate to lyophilization 1: re-solubility immediately after lyophilization; conditions: KRN7000 200 µg/ml, Polysorbate 20 0.5%
Protocol: A variety of monosaccharides and disaccharides were used for examination of excipients of the lyophilized preparation. In this context, the active component (KRN7000) was set at the concentration of 200 µg/ml, and Polysorbate 20 which is used only in a limited amount from the viewpoint of safety was set at the concentration of 0.5% in the following examination.
(§1) First, Polysorbate 20 was dissolved in distilled water in a concentration of 0.5%, and the saccharides were dissolved in such concentrations as listed in Table 6. Next, 20 mg of the active component (KRN7000) was weighed and stirred in 100 ml of the solvents in a heated bath to 80°C for 20 minutes in order to form a solution. After cooling with running water, the mixture was filtered through a 0.22 µm filter, and transparent colorless glass vials having a volume of 5 ml were charged with a 1 ml portion of each of a variety of solutions thus obtained and subjected to lyophilization. Lyophilization was carried out under the condition of preliminary freezing at -40°C for 2 hours and drying at -20°C for 24 hours, 10°C for 12 hours, and finally at 25°C for 5 hours to give the lyophilized product. The degree of vacuum was set at 0.1 Torr or less during drying step.
After the lyophilization step, the lyophilized composition was reconstituted in 1 ml of distilled water for injection, left standing for 30 minutes, and solubility was judged when the foams generated on reconstitution disappeared.
(§2) The solubility was judged by cleaning the outside of the vial and placing it beneath the white light source in a darkroom for observation with naked eye at the position of a luminous intensity of about 5,000 lux. When the sample was clear with no precipitates, it was judged that the active component was dissolved.

[2] = Additives for improving re-solubility during storage, mannitol as excipient; conditions: lyophilized, KRN7000 200 µg/ml, Polysorbate 20 0.5%, 25°C
Protocol: as §1, with “mannitol and a variety of additives” for “the saccharides were dissolved in”, “8.” for “6.”
After the lyophilization step, the lyophilized composition was stored at 25°C. After storage for 1 month, the lyophilized composition was reconstituted in 1 ml of distilled water for injection, left standing for 30 minutes, and solubility was judged when the foams generated on reconstitution disappeared. The samples judged in solution were further stored, and judged again of their solubility after 4 months.
as §2

[3] = Additives for improving re-solubility during storage, sucrose as excipient; conditions: lyophilized, KRN7000 200 µg/ml, Polysorbate 20 0.5%, Sucrose 9.6%
Protocol: as §1, with “sucrose and a variety of additives” for “the saccharides were dissolved in”, “9.” for “6.”
After the lyophilization step, the lyophilized composition thus obtained was stored at 25°C or 50°C, or at both of these temperatures. After storage at 25°C for 1 month or at 50°C for 3 days, the lyophilized composition was reconstituted in 1 ml of distilled water for injection, left standing for 30 minutes, and solubility was judged when the foams generated on reconstitution disappeared. The samples judged in solution were further stored, and judged again of their solubility after storage at 25°C for 4 months or at 50°C for 2 weeks.
as §2

Structure (SMILES): CCCCCCCCCCCCCCCCCCCCCCCCCC(=O)N[C@@H](CO[C@H]1O[C@H](CO)[C@H](O)[C@H](O)[C@H]1O)[C@H](O)[C@H](O)CCCCCCCCCCCCCC [KRN7000, (2S,3S,4R)-1-(α-D-galactopyranosyloxy)-2-hexacosanoylamino-3,4-octadecanediol]
- Re-solubility immediately after lyophilization ([1]; Fructose 5%): + (+ not dissolved (or deposited))
- Re-solubility immediately after lyophilization ([1]; Fructose 10%): + (+ not dissolved (or deposited))
- Re-solubility immediately after lyophilization ([1]; Glucose 5%): - (- dissolved)
- Re-solubility immediately after lyophilization ([1]; Glucose 10%): + (+ not dissolved (or deposited))
- Re-solubility immediately after lyophilization ([1]; Lactose 5%): + (+ not dissolved (or deposited))
- Re-solubility immediately after lyophilization ([1]; Lactose 10%): + (+ not dissolved (or deposited))
- Re-solubility immediately after lyophilization ([1]; Maltose 1.5%): + (+ not dissolved (or deposited))
- Re-solubility immediately after lyophilization ([1]; Maltose 3%): + (+ not dissolved (or deposited))
- Re-solubility immediately after lyophilization ([1]; Mannitol 5%): + (+ not dissolved (or deposited))
- Re-solubility immediately after lyophilization ([1]; Mannitol 10%): - (- dissolved)
- Re-solubility immediately after lyophilization ([1]; Sorbitol 5%): + (+ not dissolved (or deposited))
- Re-solubility immediately after lyophilization ([1]; Sorbitol 10%): + (+ not dissolved (or deposited))
- Re-solubility immediately after lyophilization ([1]; Sucrose 4.8%): - (- dissolved)
- Re-solubility immediately after lyophilization ([1]; Sucrose 9.6%): - (- dissolved)
- Re-solubility immediately after lyophilization ([1]; Xylitol 4.3%): + (+ not dissolved (or deposited))
- Re-solubility immediately after lyophilization ([1]; Xylitol 8.6%): + (+ not dissolved (or deposited))
- Re-solubility after storage (by naked eye) ([2]; Mannitol 10%, Sodium deoxycholate, 1%, 1 month): - (- dissolved)
- Re-solubility after storage (by naked eye) ([2]; Mannitol 10%, Sodium deoxycholate, 1%, 4 months): - (- dissolved)
- Re-solubility after storage (by naked eye) ([2]; Mannitol 10%, no additive, 1 month): - (- dissolved)
- Re-solubility after storage (by naked eye) ([2]; Mannitol 10%, no additive, 4 months): + (+ not dissolved (or deposited))
- Re-solubility after storage (by naked eye) ([2]; Mannitol 15%, Glycerol, 0.1%, 1 month): + (+ not dissolved (or deposited))
- Re-solubility after storage (by naked eye) ([2]; Mannitol 15%, Glycerol, 0.1%, 4 months): + (+ not dissolved (or deposited))
- Re-solubility after storage (by naked eye) ([2]; Mannitol 15%, Glycerol, 1%, 1 month): + (+ not dissolved (or deposited))
- Re-solubility after storage (by naked eye) ([2]; Mannitol 15%, Glycerol, 1%, 4 months): + (+ not dissolved (or deposited))
- Re-solubility after storage (by naked eye) ([2]; Mannitol 15%, PEG400, 1%, 1 month): + (+ not dissolved (or deposited))
- Re-solubility after storage (by naked eye) ([2]; Mannitol 15%, PEG400, 1%, 4 months): + (+ not dissolved (or deposited))
- Re-solubility after storage (by naked eye) ([2]; Mannitol 15%, Sodium deoxycholate, 1%, 1 month): + (+ not dissolved (or deposited))
- Re-solubility after storage (by naked eye) ([2]; Mannitol 15%, Sodium deoxycholate, 1%, 4 months): + (+ not dissolved (or deposited))
- Re-solubility after storage (by naked eye) ([2]; Mannitol 15%, no additive, 1 month): + (+ not dissolved (or deposited))
- Re-solubility after storage (by naked eye) ([2]; Mannitol 15%, no additive, 4 months): + (+ not dissolved (or deposited))
- Re-solubility after storage (by naked eye) ([3]; Arginine, 0.1%, 50°C, 3 days): + (+ not dissolved (or deposited))
- Re-solubility after storage (by naked eye) ([3]; Glycerol, 1%, 25°C, 1 month): + (+ not dissolved (or deposited))
- Re-solubility after storage (by naked eye) ([3]; Glycine, 0.1%, 50°C, 3 days): + (+ not dissolved (or deposited))
- Re-solubility after storage (by naked eye) ([3]; Glycine, 1%, 50°C, 3 days): + (+ not dissolved (or deposited))
- Re-solubility after storage (by naked eye) ([3]; Histidine, 2%, 50°C, 2 weeks): - (- dissolved)
- Re-solubility after storage (by naked eye) ([3]; Histidine, 2%, 50°C, 3 days): - (- dissolved)
- Re-solubility after storage (by naked eye) ([3]; Pluronic F68, 0.1%, 25°C, 1 month): - (- dissolved)
- Re-solubility after storage (by naked eye) ([3]; Pluronic F68, 0.1%, 25°C, 4 month): + (+ not dissolved (or deposited))
- Re-solubility after storage (by naked eye) ([3]; Pluronic F68, 1%, 25°C, 1 month): - (- dissolved)
- Re-solubility after storage (by naked eye) ([3]; Pluronic F68, 1%, 25°C, 4 month): + (+ not dissolved (or deposited))
- Re-solubility after storage (by naked eye) ([3]; Propylene glycol, 1%, 25°C, 1 month): + (+ not dissolved (or deposited))
- Re-solubility after storage (by naked eye) ([3]; Sodium deoxycholate, 0.1%, 25°C, 1 month): - (- dissolved)
- Re-solubility after storage (by naked eye) ([3]; Sodium deoxycholate, 0.1%, 25°C, 4 month): + (+ not dissolved (or deposited))
- Re-solubility after storage (by naked eye) ([3]; Sodium deoxycholate, 1%, 25°C, 1 month): - (- dissolved)
- Re-solubility after storage (by naked eye) ([3]; Sodium deoxycholate, 1%, 25°C, 4 month): - (- dissolved)
- Re-solubility after storage (by naked eye) ([3]; Sodium deoxycholate, 1%, 50°C, 2 weeks): - (- dissolved)
- Re-solubility after storage (by naked eye) ([3]; Sodium deoxycholate, 1%, 50°C, 3 days): - (- dissolved)
- Re-solubility after storage (by naked eye) ([3]; no additive, 25°C, 1 month): - (- dissolved)
- Re-solubility after storage (by naked eye) ([3]; no additive, 25°C, 4 month): + (+ not dissolved (or deposited))
- Re-solubility after storage (by naked eye) ([3]; no additive, 50°C, 3 days): + (+ not dissolved (or deposited))
